Legend:
[1] = Blood alcohol level (BAC test strip) in human subjects after alcohol consumption, glucarate versus placebo; type: in vivo; conditions: twenty subjects
Description: (§1) Twenty subjects, currently taking no form of d-glucarate, were recruited for the evaluation. On two separate occasions (at least 5 days apart) the subjects voluntarily consumed alcoholic beverages. The amount ingested was at their discretion, however it was the exact same about on both occasions and roughly over the same duration (+/−½ hour).
(§2) On the first occasion, the subject was asked to take a placebo, while on the second occasion the subject was asked to take d-glucarate. The subjects were not informed what they were taking on either occasion, or of the difference between the placebo and chemical compound.
On the first occasion the placebo was administered prior to alcohol ingestion, after alcohol ingestion then 8 hours following ingestion.
A BAC was used to determine the Blood alcohol level after consumption then 8 hours later.
(§3) On the second occasion 1000 mg of Potassium Hydrogen Glucarate was administered before alcohol consumption, then 500 mg after alcohol consumption, then 1000 mg 8 hours later.
A BAC test strip was used to determine the Blood alcohol level after consumption then 8 hours later.

hangover symptoms = experiment: Subject questionnaire on hangover symptoms and overall feelings after alcohol consumption, glucarate versus placebo; type: in vivo, human; conditions: twenty subjects, questionnaire 12-14 hours after each occasion
Description: as §1, §2, §3
Referring to FIG. 2, 12-14 hours after each occasion the subjects filled out the questionnaire to reflect each subject's observation of hangover symptoms. A 1 on the scale represents the most severe of symptoms, and a 5 represents neutral feeling or no symptom. The black circle indicates the average on the 20 subjects studied.
Referring to FIG. 3, the last parameter measured was the subjects overall feelings, a rating of 1 being the most unpleasant to a rating of 5 representing the most pleasant of each subject's typical feeling.

In the case of `O=C(O)[C@@H](O)[C@@H](O)[C@H](O)[C@@H](O)C(=O)[O-].[K+]` [glucarate compound, Potassium Hydrogen Glucarate], the “decrease in the total level of recirculating alcohol relative to a placebo” value ([1]; after rest and a duration of 8 hours, 1000 mg before and 500 mg after alcohol consumption) is reported as 55%, the “reduction in the amount of alcohol recirculating within the blood stream relative to a placebo” value ([1]; immediately after alcohol consumption, 1000 mg before alcohol consumption, oral) is reported as 18% and the “hangover symptoms and overall feelings, average index on scale 1-5” value (hangover symptoms) is reported as “reduced the subjects' hangover tendencies”.

Reference: US7662863B2, “Therapeutic agent for the use in reducing alcohol intoxication and reducing or eliminating the negative side effects associated with alcohol ingestion” (priority 2003, dated 2010)
